From patent publication US12612358B2, “Resorcinol-based compounds and uses thereof” (priority 2020, dated 2026)

Tests used:
mouse 4T1 TNBC = assay: Cell proliferation, 4T1 TNBC cells; type: cell-based; conditions: mouse 4T1 TNBC cells; read-out: IC50 group for inhibition of cell proliferation
SW1990 = assay: CellTiter-Glo cell proliferation, SW1990 pancreatic cancer cells; type: cell-based; conditions: Homo sapiens, read-out: IC50 category
Source text: Cell culture and treatment of pancreatic cancer cell lines: Pancreatic cancer cells lines BxPC-3, SW1990, and PANC-1 used in the experiments presented herein can be obtained from ATCC. The cells can be cultured and passaged in complete growth medium (RPMI-1640, Dulbecco's Modified Eagle Medium, or Leibovitz's L-15 medium) that has been supplemented with fetal bovine serum to a final concentration of 10%.
Effects of Compound-5B on proliferation and Id-1 expression in pancreatic cell lines. Compound-5B was next tested for inhibition of cell viability/proliferation in the three pancreatic cancer cell lines and two primary patient-derived cancer cell lines. Compound-5B inhibited cell viability/proliferation of all the cancer cell lines (Table 2). The culturing condition for the pancreatic cell lines was similar to those used in the breast cancer lines, with the exception of the primary patient-derived pancreatic cancer cell lines (PANC9 and PANC13). […] Cell proliferation of pancreatic cells in the presence of drug was measured using the CellTiter-Glo luminescent Assay and IC50 values were calculated (Table 2). […]

PANC9 = assay: CellTiter-Glo cell proliferation, patient-derived PANC9 tumorspheres; type: cell-based; conditions: Homo sapiens, 72 h, three days treatment, read-out: IC50 category
Source text: Effects of Compound-5B on proliferation and Id-1 expression in pancreatic cell lines. Compound-5B was next tested for inhibition of cell viability/proliferation in the three pancreatic cancer cell lines and two primary patient-derived cancer cell lines. Compound-5B inhibited cell viability/proliferation of all the cancer cell lines (Table 2). The culturing condition for the pancreatic cell lines was similar to those used in the breast cancer lines, with the exception of the primary patient-derived pancreatic cancer cell lines (PANC9 and PANC13). For determining inhibition of cell proliferation in patient-derived pancreatic cancer cells were cultured in a T75 ultra low attachment flasks with DMEM/F12 media supplemented with B27, penicillin/streptomycin (10,000 u/mL), 50 µg/mL human epidermal growth factor (hEGF), 50 μg/mL human fibroblast growth factor, and 5 μg/mL heparin. Cells were plated in a 384-well plate and incubated for three days to promote the formation of tumorspheres. Cells were then treated with Compound-5B for three days. Cell proliferation of pancreatic cells in the presence of drug was measured using the CellTiter-Glo luminescent Assay and IC50 values were calculated (Table 2). The IC50 and corresponding 95% confidence limits (CL) were calculated using non-linear regression analysis.

DU145 (prostate) = assay: Cell proliferation, DU145 prostate cancer cells; type: cell-based; conditions: Homo sapiens, DU-145, read-out: IC50 category
Source text: Effects of Compound-5B on cell proliferation in additional cancer cells: To determine whether Compound-5B would have broad based anticancer activity, we study whether Compound-5B would be effective at inhibiting cell proliferation in a variety of cancers overexpressing Id-1. The assay conditions used were identical to those presented for breast and pancreatic cancers. Indeed, Compound-5B was potent at inhibiting cell proliferation in blood cancer (leukemia), glioblastoma, prostate, and ovarian cancer.

Id-1 [1] = assay: Id-1 protein expression in 4T1 breast cancer cells; type: cell-based; conditions: mouse 4T1 breast cancer cells
Method: Quantitative Western analysis: Cells are cultured and treated in 6-well dishes. After the cells are washed twice with cold PBS, lysis buffer is added. The cells are then lysed by freezing for 10 min at −70° C. and then thawing at ambient temperature. The cell lysate is collected and the protein content is determined by using Bradford reagent. Equal amounts of protein are heated at 90° C. in Laemmli sample buffer which also included β-mercaptoethanol. The samples are then loaded onto a precast SDS-PAGE gel (Bio-Rad Laboratories, Hercules, CA). After which, proteins are then electroblotted onto an Immobilon membrane (Millipore, Billerica, MA) overnight at 2-4° C. […]
Antitumor activity of Compound-5B in vivo in breast cancer. […] We also determined whether it produced a similar effect in mouse 4T1 breast cancer cells. […] Lung metastasis % (total metastatic foci in treated/vehicle×100) was evaluated (FIG. 4B). […] Animals with established tumors (average volume of 100 mm^3) were randomized and treated once daily, 6 days a week, with i.p., injections of vehicle, or 1 mg/kg Compound-5B, tumors were measured once weekly by an operator blinded to the treatment groups. Changes in tumor volume (mm^3) were calculated as (length×width2)/2. *indicates statistically significant differences between vehicle and Compound-5B (p<0.05, Two-way ANOVA repeated measures, and Tukey's multiple comparisons test).

Id-1 [2] = assay: Id-1 expression in PANC-1 cells (Western analysis); type: cell-based, human
Method: Quantitative Western analysis: Cells are cultured and treated in 6-well dishes. After the cells are washed twice with cold PBS, lysis buffer is added. The cells are then lysed by freezing for 10 min at −70° C. and then thawing at ambient temperature. The cell lysate is collected and the protein content is determined by using Bradford reagent. Equal amounts of protein are heated at 90° C. in Laemmli sample buffer which also included β-mercaptoethanol. The samples are then loaded onto a precast SDS-PAGE gel (Bio-Rad Laboratories, Hercules, CA). After which, proteins are then electroblotted onto an Immobilon membrane (Millipore, Billerica, MA) overnight at 2-4° C. The membrane is then blocked for 1 hour with 5% nonfat dry milk which included TBS+Tween. The membranes are then incubated with an anti-Id-1 primary antibody, and then an appropriate secondary antibody was used. Blots are incubated for 45 min and then washed 4 times with TBS+Tween for 15 min each. The blots are developed with SuperSignal Femto (Pierce, Rockford, IL), and imaged on either a Fluorchem 8900 (Alpha Innotech, San Leandro, CA) or ECL Hyperfilm (Amersham-Pharmacia, Piscataway, NJ). Band intensity values are obtained (after background subtraction) directly from the […] using AlphaeaseFC software (San Leandro, CA) or from film using Image-J (NIH, MD). […]

4T1 cells = assay: 4T1 lung metastasis model in BALB/c mice; type: in vivo, mouse; conditions: 4T1 tail vein, i.p. once a day, six days a week, three weeks
Method: Antitumor activity of Compound-5B in vivo in breast cancer. Based on the activity of Compound-5B in culture, the antitumor activity of Compound-5B was tested in vivo in two models of breast cancer (FIG. 4). Compound-5B produced a potent inhibition of Id-1 expression in human MDA-MB231 cells (FIG. 1A). We also determined whether it produced a similar effect in mouse 4T1 breast cancer cells. This cell line is commonly used for seeding a lung metastatic model in mice. […] LC=loading control (FIG. 4A). […] Lung metastases were generated in BALB/c mice by tail vein injection of 4×10^4 4T1 cells. Two days after the injection, the tumor bearing mice were injected i.p. once a day, six days a week, with vehicle or Compound 5B three weeks. Lung metastasis % (total metastatic foci in treated/vehicle×100) was evaluated (FIG. 4B). […] Animals with established tumors (average volume of 100 mm^3) were randomized and treated once daily, 6 days a week, with i.p., injections of vehicle, or 1 mg/kg Compound-5B, tumors were measured once weekly by an operator blinded to the treatment groups. Changes in tumor volume (mm^3) were calculated as (length×width2)/2. *indicates statistically significant differences between vehicle and Compound-5B (p<0.05, Two-way ANOVA repeated measures, and Tukey's multiple comparisons test).

[3] = Plasma protein binding (Eurofins ADME); type: in vitro ADME
Method: Evaluating ADME of Compound-5B in vitro. It is important to evaluate ADME first in culture as it allows for the selection of the best candidate for PK analysis in vivo. ADME analysis of Compound-5B was performed by Eurofins.

[4] = target: T1, ADRB1 (β-Adrenergic receptor) (Homo sapiens, UniProt P08588); assay: SAFETY scan E/IC50 ELECT, ADRB1; type: biochemical; conditions: read-out: inhibition against ADRB1 (mild)
T1 construct: purchased Eurofin's
T1 sequence (P08588 whole entry): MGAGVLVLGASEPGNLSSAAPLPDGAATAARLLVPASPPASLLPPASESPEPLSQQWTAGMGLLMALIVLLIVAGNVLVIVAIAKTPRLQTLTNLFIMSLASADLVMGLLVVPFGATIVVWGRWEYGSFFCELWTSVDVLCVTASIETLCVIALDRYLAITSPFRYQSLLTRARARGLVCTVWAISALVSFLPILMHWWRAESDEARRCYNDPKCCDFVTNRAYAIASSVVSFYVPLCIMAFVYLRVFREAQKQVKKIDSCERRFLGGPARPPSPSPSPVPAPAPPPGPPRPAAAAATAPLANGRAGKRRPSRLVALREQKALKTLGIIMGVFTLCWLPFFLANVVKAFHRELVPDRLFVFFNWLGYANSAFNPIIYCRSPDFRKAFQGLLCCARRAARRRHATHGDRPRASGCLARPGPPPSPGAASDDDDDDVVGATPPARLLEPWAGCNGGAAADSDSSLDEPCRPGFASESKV

468 kinases = assay: Eurofin's Kinome scan assay; conditions: 1 μM and 10 μM
Method: (§1) Eurofin's Kinome scan assay was used to screen Compound-5B against 468 kinases at 1 μM and 10 μM concentrations. […] In order to understand any potential pharmacological cross reactivity, a known contributor to clinical adverse drug reactions Compound-5B was tested in SAFETY scan E/IC50 ELECT.

cannabinoid receptors = assay: Cannabinoid receptor binding
Method: as §1

CCCCCCC(C)(C)c1cc(O)c(C(=O)Nc2ccccc2)c(O)c1 [Compound 5B, 2,6-dihydroxy-4-(2-methyloctan-2-yl)-N-phenylbenzamide]
IC50 (mouse 4T1 TNBC): 0.5 to 1 µM | IC50 (SW1990): < 0.5 µM | IC50 (PANC9): < 0.5 µM | IC50 (DU145 (prostate)): < 0.5 µM | Id-1 protein expression (Id-1 [1]): downregulation of Id-1 protein expression | inhibition of Id-1 expression (Id-1 [2]): able to effectively inhibit Id-1 expression | lung metastasis (4T1 cells): inhibits breast cancer metastasis | plasma protein binding [3]: high | IC50 [4]: 0.64 to 0.75 µM | inhibition of 468 kinases (468 kinases): No significant inhibition | binding to the cannabinoid receptors (cannabinoid receptors): does not bind
